Laboratory results reported in ChEMBL document CHEMBL1201862, “PubChem BioAssay data set” (2004).
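Interpolation was linear, between the two tested concentrations surrounding the appropriate level; five concentrations were tested over 48 hours in 96-well plates. At the GI50, growth is halved.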 Calls of active or inactive are those of the source. Cut-off read from the data, not from the text of the source: active = GI50 up to about 1.1 µM and inactive = higher.

Experiments:
Assay in all cases: NCI tumour cell line growth inhibition, 48 h
SN12C = tested on: SN12C
MDA-N = tested on: MDA-N
M14 = tested on: M14
HCT-15 = tested on: HCT-15
SK-MEL-2 = tested on: SK-MEL-2
SK-OV-3 = tested on: SK-OV-3
786-0 = tested on: 786-0
T47D = tested on: T47D
SR = tested on: SR
LOX IMVI = tested on: LOX IMVI
HL-60 = tested on: HL-60
Hs-578T = tested on: Hs-578T
UACC-62 = tested on: UACC-62
OVCAR-4 = tested on: OVCAR-4
SF-539 = tested on: SF-539
SK-MEL-28 = tested on: SK-MEL-28
ACHN = tested on: ACHN
EKVX = tested on: EKVX
HCC 2998 = tested on: HCC 2998

Nc1ncc2ncn(C3CCC(CO)O3)c2n1 (stereo unspecified)
GI50 (SN12C): > 100 µM (inactive)
GI50 (MDA-N): > 100 µM (inactive)
GI50 (M14): > 100 µM (inactive)
GI50 (HCT-15): > 100 µM
GI50 (SK-MEL-2): > 100 µM (inactive)
GI50 (SK-OV-3): > 100 µM (inactive)
GI50 (786-0): > 100 µM (inactive)
GI50 (T47D): > 100 µM (inactive)
GI50 (SR): > 100 µM (inactive)
GI50 (LOX IMVI): > 100 µM (inactive)
GI50 (HL-60): > 100 µM (inactive)
GI50 (Hs-578T): > 100 µM (inactive)
GI50 (UACC-62): > 100 µM (inactive)
GI50 (OVCAR-4): > 100 µM (inactive)
GI50 (SF-539): > 100 µM (inactive)
GI50 (SK-MEL-28): > 100 µM (inactive)
GI50 (ACHN): > 100 µM (inactive)
GI50 (EKVX): > 100 µM (inactive)

Nc1ccc(Nc2cc(O)nc(O)n2)cc1
GI50 (SN12C): > 100 µM (inactive)
GI50 (MDA-N): > 100 µM (inactive)
GI50 (HCT-15): > 100 µM
GI50 (HCC 2998): > 100 µM (inactive)
GI50 (SK-OV-3): > 100 µM (inactive)
GI50 (786-0): > 100 µM (inactive)
GI50 (T47D): 39.3 µM (inactive)
GI50 (SR): > 100 µM (inactive)
GI50 (LOX IMVI): > 100 µM (inactive)
GI50 (HL-60): > 100 µM (inactive)
GI50 (Hs-578T): > 100 µM (inactive)
GI50 (UACC-62): > 100 µM (inactive)
GI50 (OVCAR-4): > 100 µM (inactive)
GI50 (SF-539): > 100 µM (inactive)
GI50 (SK-MEL-28): > 100 µM (inactive)
GI50 (ACHN): > 100 µM (inactive)
GI50 (EKVX): > 100 µM (inactive)

[N-]=[N+]=C(C(=O)OCC#CCOC(=O)C(=[N+]=[N-])S(=O)(=O)c1ccccc1)S(=O)(=O)c1ccccc1
GI50 (SN12C): > 10 µM (inactive)
GI50 (MDA-N): > 10 µM (inactive)
GI50 (M14): > 10 µM (inactive)
GI50 (HCT-15): > 10 µM
GI50 (HCC 2998): > 10 µM (inactive)
GI50 (SK-MEL-2): > 10 µM (inactive)
GI50 (SK-OV-3): > 10 µM (inactive)
GI50 (786-0): > 10 µM (inactive)
GI50 (T47D): > 10 µM (inactive)
GI50 (LOX IMVI): > 10 µM (inactive)
GI50 (HL-60): > 10 µM (inactive)
GI50 (Hs-578T): > 10 µM (inactive)
GI50 (UACC-62): > 10 µM (inactive)
GI50 (OVCAR-4): > 10 µM (inactive)
GI50 (SF-539): > 10 µM (inactive)
GI50 (SK-MEL-28): > 10 µM (inactive)
GI50 (ACHN): > 10 µM (inactive)
GI50 (EKVX): > 10 µM (inactive)

ONCCCn1cnc2c(NC3CC3)ncnc21
GI50 (SN12C): > 100 µM (inactive)
GI50 (MDA-N): > 100 µM (inactive)
GI50 (M14): > 100 µM (inactive)
GI50 (HCT-15): > 100 µM
GI50 (HCC 2998): > 100 µM (inactive)
GI50 (SK-MEL-2): > 100 µM (inactive)
GI50 (SK-OV-3): > 100 µM (inactive)
GI50 (786-0): > 100 µM (inactive)
GI50 (T47D): > 100 µM (inactive)
GI50 (SR): > 100 µM (inactive)
GI50 (LOX IMVI): > 100 µM (inactive)
GI50 (Hs-578T): > 100 µM (inactive)
GI50 (UACC-62): > 100 µM (inactive)
GI50 (OVCAR-4): > 100 µM (inactive)
GI50 (SF-539): > 100 µM (inactive)
GI50 (SK-MEL-28): > 100 µM (inactive)
GI50 (ACHN): > 100 µM (inactive)
GI50 (EKVX): > 100 µM (inactive)

C=C1C(=O)CC2C1CC(=O)/C(C)=C/CCC(C)(O)C2O (stereo unspecified)
GI50 (SN12C): 2.29 µM (inactive)
GI50 (MDA-N): 1.48 µM (inactive)
GI50 (M14): > 25.2 µM (inactive)
GI50 (HCT-15): 4.9 µM
GI50 (HCC 2998): 7.74 µM (inactive)
GI50 (SK-MEL-2): 0.986 µM (active)
GI50 (SK-OV-3): 2.84 µM (inactive)
GI50 (786-0): 4.55 µM (inactive)
GI50 (T47D): 1.74 µM (inactive)
GI50 (SR): 7.91 µM (inactive)
GI50 (LOX IMVI): 5.47 µM (inactive)
GI50 (HL-60): 4.41 µM (inactive)
GI50 (Hs-578T): 5.4 µM (inactive)
GI50 (UACC-62): 0.603 µM (active)
GI50 (OVCAR-4): 10.9 µM (inactive)
GI50 (SK-MEL-28): 14.9 µM (inactive)
GI50 (ACHN): 2.37 µM (inactive)
GI50 (EKVX): 18.7 µM (inactive)

c1ccc([P+](CCSCCSCC[P+](c2ccccc2)(c2ccccc2)c2ccccc2)(c2ccccc2)c2ccccc2)cc1
GI50 (SN12C): > 100 µM (inactive)
GI50 (MDA-N): > 100 µM (inactive)
GI50 (M14): > 100 µM (inactive)
GI50 (HCT-15): > 100 µM
GI50 (HCC 2998): > 100 µM (inactive)
GI50 (SK-MEL-2): > 100 µM (inactive)
GI50 (SK-OV-3): > 100 µM (inactive)
GI50 (786-0): > 100 µM (inactive)
GI50 (T47D): > 100 µM (inactive)
GI50 (HL-60): > 100 µM (inactive)
GI50 (Hs-578T): > 100 µM (inactive)
GI50 (UACC-62): 64.4 µM (inactive)
GI50 (OVCAR-4): > 100 µM (inactive)
GI50 (SF-539): > 100 µM (inactive)
GI50 (SK-MEL-28): > 100 µM (inactive)
GI50 (ACHN): > 100 µM (inactive)
GI50 (EKVX): > 100 µM (inactive)

O=C(O)CN(CC(=O)O)c1ccccc1
GI50 (SN12C): > 100 µM (inactive)
GI50 (MDA-N): 97.5 µM (inactive)
GI50 (M14): > 100 µM (inactive)
GI50 (HCT-15): > 100 µM
GI50 (SK-MEL-2): 33.2 µM (inactive)
GI50 (SK-OV-3): > 100 µM (inactive)
GI50 (786-0): > 100 µM (inactive)
GI50 (T47D): 37.3 µM (inactive)
GI50 (SR): > 100 µM (inactive)
GI50 (LOX IMVI): > 100 µM (inactive)
GI50 (HL-60): 44.5 µM (inactive)
GI50 (Hs-578T): 80 µM (inactive)
GI50 (UACC-62): 32 µM (inactive)
GI50 (OVCAR-4): 81.7 µM (inactive)
GI50 (SF-539): > 100 µM (inactive)
GI50 (SK-MEL-28): > 100 µM (inactive)
GI50 (ACHN): > 100 µM (inactive)
GI50 (EKVX): > 100 µM (inactive)

c1ccc2cc(OCC3CO3)c(OCC3CO3)cc2c1 (stereo unspecified)
GI50 (SN12C): 2.37 µM (inactive)
GI50 (MDA-N): 10.1 µM (inactive)
GI50 (M14): 1.64 µM (inactive)
GI50 (HCT-15): 4.63 µM
GI50 (SK-MEL-2): 10.9 µM (inactive)
GI50 (SK-OV-3): 10.6 µM (inactive)
GI50 (786-0): 1.54 µM (inactive)
GI50 (T47D): 10.9 µM (inactive)
GI50 (SR): 0.333 µM (active)
GI50 (LOX IMVI): 1.03 µM (active)
GI50 (HL-60): 1.53 µM (inactive)
GI50 (Hs-578T): 3.89 µM (inactive)
GI50 (UACC-62): 2.84 µM (inactive)
GI50 (SF-539): 2.65 µM (inactive)
GI50 (SK-MEL-28): 11.9 µM (inactive)
GI50 (ACHN): 2.18 µM (inactive)
GI50 (EKVX): 11.4 µM (inactive)
